Experimental data reported in patent US9889115B2, “Fitness assay and associated methods” (priority 1998, dated 2018).
Read-outs that look alike come from different tables or passages of the source.

What was measured:
Format in all cases: cell-based
[1] = test system: wild-type HIV-1 (WT); assay: IC50 against wild-type HIV-1 (Table 9a); conditions: (WT)
[2] = test system: multidrug-resistant HIV-1 clinical isolate, patient 35; assay: microbe, parasite or virus in culture; conditions: Patient Isolate 35
Protocol: (§1) The mutant multidrug-resistant HIV-1 strains corresponding to each patient, numbered 9-35, were genetically analyzed in terms of the nucleic acid sequences of the protease (PR) and a portion of the reverse transcriptase (RT) genes from which mutations in these enzymes were determined. The mutations in the protease and reverse transcriptase of the multidrug-resistant viruses isolated from each patient are shown below in Table 9b.

[3] = test system: multidrug-resistant HIV-1 clinical isolate, patient 31; assay: microbe, parasite or virus in culture; conditions: Patient Isolate 31
Protocol: as §1

[4] = test system: multidrug-resistant HIV-1 clinical isolate, patient 14; assay: microbe, parasite or virus in culture; conditions: Patient Isolate 14
Protocol: as §1

[5] = test system: multidrug-resistant HIV-1 clinical isolate, patient 17; assay: microbe, parasite or virus in culture; conditions: Human immunodeficiency virus 1; Patient Isolate 17
Protocol: as §1

[6] = test system: multidrug-resistant HIV-1 clinical isolate, patient 20; assay: microbe, parasite or virus in culture; conditions: Patient Isolate 20
Protocol: as §1

[7] = test system: multidrug-resistant HIV-1 clinical isolate, patient 13; assay: microbe, parasite or virus in culture; conditions: Patient Isolate 13
Protocol: as §1

[8] = test system: multidrug-resistant HIV-1 clinical isolate, patient 30; assay: microbe, parasite or virus in culture; conditions: Patient Isolate 30
Protocol: as §1

[9] = test system: multidrug-resistant HIV-1 clinical isolate, patient 32; assay: microbe, parasite or virus in culture; conditions: Patient Isolate 32
Protocol: as §1

[10] = test system: multidrug-resistant HIV-1 clinical isolate, patient 23; assay: microbe, parasite or virus in culture; conditions: Patient Isolate 23
Protocol: as §1

[11] = test system: multidrug-resistant HIV-1 clinical isolate, patient 33; assay: microbe, parasite or virus in culture; conditions: Patient Isolate 33
Protocol: as §1

[12] = test system: multidrug-resistant HIV-1 clinical isolate, patient 12; assay: microbe, parasite or virus in culture; conditions: Patient Isolate 12
Protocol: as §1

[13] = test system: multidrug-resistant HIV-1 clinical isolate, patient 18; assay: microbe, parasite or virus in culture; conditions: Patient Isolate 18
Protocol: as §1

[14] = test system: multidrug-resistant HIV-1 clinical isolate, patient 16; assay: microbe, parasite or virus in culture; conditions: Patient Isolate 16
Protocol: as §1

[15] = test system: multidrug-resistant HIV-1 clinical isolate, patient 27; assay: microbe, parasite or virus in culture; conditions: Patient Isolate 27
Protocol: as §1

[16] = test system: multidrug-resistant HIV-1 clinical isolate, patient 11; assay: microbe, parasite or virus in culture; conditions: Patient Isolate 11
Protocol: as §1

[17] = test system: multidrug-resistant HIV-1 clinical isolate, patient 9; assay: microbe, parasite or virus in culture; conditions: Patient Isolate 9
Protocol: as §1

[18] = test system: multidrug-resistant HIV-1 clinical isolate, patient 29; assay: microbe, parasite or virus in culture; conditions: Patient Isolate 29
Protocol: as §1

[19] = test system: multidrug-resistant HIV-1 clinical isolate, patient 15; assay: microbe, parasite or virus in culture; conditions: Patient Isolate 15
Protocol: as §1

[20] = test system: multidrug-resistant HIV-1 clinical isolate, patient 19; assay: microbe, parasite or virus in culture; conditions: Patient Isolate 19
Protocol: as §1

[21] = test system: multidrug-resistant HIV-1 clinical isolate, patient 28; assay: microbe, parasite or virus in culture; conditions: Patient Isolate 28
Protocol: as §1

[22] = test system: multidrug-resistant HIV-1 clinical isolate, patient 10; assay: microbe, parasite or virus in culture; conditions: Patient Isolate 10
Protocol: as §1

[23] = test system: HIV-1BAL; assay: PHA-PBMC assay, p24 Gag protein production; conditions: Human immunodeficiency virus 1; HIV-1BAL, NSI; PHA-PBMC, p24 (Table 3)
[24] = test system: HIV-1LAI; assay: PHA-PBMC assay, p24 Gag protein production; conditions: Human immunodeficiency virus 1; HIV-1LAI, SI; PHA-PBMC, p24 (Table 3)
[25] = test system: multidrug-resistant HIV-1 clinical isolate, patient 2; assay: PHA-PBMC assay, p24 Gag protein production; conditions: Human immunodeficiency virus 1; Patient/Isolate code 2; PHA-PBMC, p24
Protocol: (§2) The patient profiles are shown below in Table 2.
(§3) To determine protease inhibitory activity against multidrug resistant HIV, the IC50's were measured against a panel of clinically isolated mutant HIV isolates.
(§4) All drug sensitivities were performed in triplicate. In order to determine whether the HIV isolates were syncitium inducing (SI) or non-syncitium inducing (NSI), an aliquot of viral stock supernatant, containing 100 TCID50, was cultured with 1×10^5 MT-2 cells in a 12-well plate. Cultures were maintained for four weeks and were examined for syncytium formation twice a week.

[26] = test system: multidrug-resistant HIV-1 clinical isolate, patient 5; assay: PHA-PBMC assay, p24 Gag protein production; conditions: Human immunodeficiency virus 1; Patient/Isolate code 5; PHA-PBMC, p24
Protocol: as §2, §3, §4

[27] = test system: multidrug-resistant HIV-1 clinical isolate, patient 4; assay: PHA-PBMC assay, p24 Gag protein production; conditions: Human immunodeficiency virus 1; Patient/Isolate code 4; PHA-PBMC, p24
Protocol: as §2, §3, §4

[28] = test system: multidrug-resistant HIV-1 clinical isolate, patient 3; assay: PHA-PBMC assay, p24 Gag protein production; conditions: Human immunodeficiency virus 1; Patient/Isolate code 3; PHA-PBMC, p24
Protocol: as §2, §3, §4

[29] = test system: multidrug-resistant HIV-1 clinical isolate, patient 1; assay: PHA-PBMC assay, p24 Gag protein production; conditions: Human immunodeficiency virus 1; Patient/Isolate code 1; PHA-PBMC, p24
Protocol: as §2, §3, §4

[30] = test system: multidrug-resistant HIV-1 clinical isolate, patient 8; assay: PHA-PBMC assay, p24 Gag protein production; conditions: Human immunodeficiency virus 1; Patient/Isolate code 8; PHA-PBMC, p24
Protocol: as §2, §3, §4

[31] = test system: HIV-1ERS104pre; assay: PHA-PBMC assay, p24 Gag protein production; conditions: Human immunodeficiency virus 1; HIV-1ERS104pre, SI; PHA-PBMC, p24
Protocol: as §2, §3, §4

[32] = test system: multidrug-resistant HIV-1 clinical isolate, patient 7; assay: PHA-PBMC assay, p24 Gag protein production; conditions: Human immunodeficiency virus 1; Patient/Isolate code 7; PHA-PBMC, p24
Protocol: as §2, §3, §4

[33] = test system: multidrug-resistant HIV-1 clinical isolate, patient 6; assay: PHA-PBMC assay, p24 Gag protein production; conditions: Human immunodeficiency virus 1; Patient/Isolate code 6; PHA-PBMC, p24
Protocol: as §2, §3, §4

[34] = test system: multidrug-resistant HIV-1 clinical isolate, patient 34; assay: IC50 against multidrug-resistant clinical isolates (Table 9a)
Protocol: as §1

[35] = test system: multidrug-resistant HIV-1 clinical isolate, patient 22; assay: as above
Protocol: as §1

[36] = test system: multidrug-resistant HIV-1 clinical isolate, patient 21; assay: microbe, parasite or virus in culture; conditions: Patient Isolate 21
Protocol: as §1

Work on `CC(C)(C)NC(=O)[C@@H]1CN(Cc2cccnc2)CCN1C[C@@H](O)C[C@@H](Cc1ccccc1)C(=O)N[C@H]1c2ccccc2C[C@H]1O` [IDV, Indinavir] yielded an IC50 ([1]; Human immunodeficiency virus 1) of 20 nM, an IC50 ([2]; Human immunodeficiency virus 1) of 509 nM and an IC50 ([3]; Human immunodeficiency virus 1) of 251 nM. It also gave an IC50 ([4]; Human immunodeficiency virus 1) of 89 nM, an IC50 [5] of 502 nM and an IC50 ([6]; Human immunodeficiency virus 1) of 591 nM. The IC50 ([7]; Human immunodeficiency virus 1) was over 1250 nM, the IC50 ([8]; Human immunodeficiency virus 1) was 270 nM and the IC50 ([9]; Human immunodeficiency virus 1) was 223 nM. The IC50 ([10]; Human immunodeficiency virus 1) was 461 nM, the IC50 ([11]; Human immunodeficiency virus 1) was 133 nM and the IC50 ([12]; Human immunodeficiency virus 1) was over 1250 nM. The IC50 ([13]; Human immunodeficiency virus 1) was 369 nM, the IC50 ([14]; Human immunodeficiency virus 1) was 384 nM and the IC50 ([15]; Human immunodeficiency virus 1) was over 1250 nM. It also gave an IC50 ([16]; Human immunodeficiency virus 1) of 12 nM, an IC50 ([17]; Human immunodeficiency virus 1) of 1090 nM and an IC50 ([18]; Human immunodeficiency virus 1) of 569 nM. For the same compound, the IC50 ([19]; Human immunodeficiency virus 1) was 265 nM, the IC50 ([20]; Human immunodeficiency virus 1) was 784 nM and the IC50 ([21]; Human immunodeficiency virus 1) was 1040 nM. For the same compound, the IC50 ([22]; Human immunodeficiency virus 1) was over 1250 nM, the IC50 [23] was 5.6 nM and the IC50 [24] was 19 nM. It also gave an IC50 [25] of 240 nM, an IC50 [26] of 800 nM and an IC50 [27] of 240 nM. The IC50 [28] was 460 nM, the IC50 [29] was over 1000 nM and the IC50 [30] was over 1000 nM. For the same compound, the IC50 [31] was 13 nM, the IC50 [32] was over 1000 nM and the IC50 [33] was 370 nM. The IC50 ([34]; Human immunodeficiency virus 1) was 595 nM and the IC50 ([35]; Human immunodeficiency virus 1) was 173 nM.
`Nc1ccn([C@H]2CC[C@@H](CO)O2)c(=O)n1` [DDC, 2′3′-dideoxycytidine] gave an IC50 [1] of 243 nM.
In the case of `Nc1ccn([C@@H]2CS[C@H](CO)O2)c(=O)n1` [Compound 3TC], the IC50 [1] is reported as 264 nM.
`O=c1[nH]cnc2c1ncn2[C@H]1CC[C@@H](CO)O1` [DDI, 2′3′-dideoxyinosine] was tested, and the IC50 [1] was 895 nM, the IC50 [2] was 17000 nM and the IC50 [3] was 2600 nM. The IC50 [4] was 2400 nM, the IC50 [6] was 7100 nM and the IC50 [7] was 500 nM. The IC50 [8] was 2800 nM, the IC50 [9] was 8400 nM and the IC50 [10] was 1800 nM. The IC50 [11] was 2000 nM, the IC50 [12] was 900 nM and the IC50 [13] was 2200 nM. It also gave an IC50 [14] of 3500 nM, an IC50 [15] of 2600 nM and an IC50 [16] of 2400 nM. The IC50 [17] was 700 nM, the IC50 [18] was 3800 nM and the IC50 [36] was 1000 nM. For the same compound, the IC50 [19] was 2200 nM, the IC50 [20] was 36600 nM and the IC50 [21] was 2800 nM. It also gave an IC50 [22] of 1700 nM, an IC50 ([34]; Patient Isolate 34, read-out: IC50) of 9100 nM and an IC50 ([35]; Patient Isolate 22, read-out: IC50) of 3700 nM.
